Our source for the MIC and Solubility values is US8318684B2, “Antibiotics, bispolides A1, A2, and A3 as well as bispolides B1, B2a, B2b and B3 and processes for producing said antibiotics” (Nimura Genetic Solutions Co., Ltd., priority 2006, dated 2012).

Converted amounts (≈) assume the structure as drawn.

In data set [1] the test system is MRSA ngs2 (methicillin-resistant strain of Staphylococcus aureus). Put plainly: Antibacterial spectrum, standard serial dilution method in liquid medium. Type of data set: cell-based. To be noted: bacto-yeast nitrogen base-glucose-NZ-amine liquid medium, read-out: Minimum growth inhibitory concentration. On the procedure: (§1) The antibacterial spectra of a bispolide A compound and a bispolide B compound were tested on a liquid medium consisting of bacto-yeast nitrogen base (a product of Difco Laboratories)-glucose-NZ-amine by a standard serial dilution method.

In data set [2] the test system is Bacillus subtilis PCI 219. The description is as above. Particulars: PCI219, bacto-yeast nitrogen base-glucose-NZ-amine liquid medium, read-out: Minimum growth inhibitory concentration. The class given is cell-based. The method, then:
as §1

Data set [3] relates to MRSA ngs1 (methicillin-resistant strain of Staphylococcus aureus). Described as above. The class given is cell-based. To be noted: bacto-yeast nitrogen base-glucose-NZ-amine liquid medium, read-out: Minimum growth inhibitory concentration. The method, then:
as §1

Data set [4] has as its system Staphylococcus aureus FDA209P. The data set is described as above. Type of data set: cell-based. To be noted: bacto-yeast nitrogen base-glucose-NZ-amine liquid medium, read-out: Minimum growth inhibitory concentration. The method, then: as §1
Data set [5] can be described thus: Solubility (physicochemical properties).
Setting [6] is: in 50% aqueous ethanol (ethanol:water 1:1 by volume).
[7] abbreviates: in methanol, ethanol, dimethylsulfoxide (DMSO), acetone and ethyl acetate.

Take `CCC1=C\C=C\C(CC)C(C(C)C(O)CC2(OC)CC(OC3OC(C)C(O)C(O)C3O)C(CC)C(C)O2)OC(=O)/C=C/C(CC)=C/C=C/C(CC)C(C(C)C(O)CC2(OC)CC(OC3CC(O)C(O)C(C)O3)C(CC)C(C)O2)OC(=O)\C=C\1` (stereo not shown) [bispolide B3]: the MIC is 3.13 µg/mL (≈ 2.66 µM) in data set [1], 0.78 µg/mL (≈ 0.662 µM) in data set [2], 1.56 µg/mL (≈ 1.32 µM) in data set [3] and 1.56 µg/mL (≈ 1.32 µM) in data set [4]. Further, the Solubility result in data set [5] (setting [6]) is “sparingly soluble”; in data set [5] (setting [7]) it was “Soluble well”; in data set [5] (in water and n-hexane) it was “insoluble”.
On to `CCC1=C\C=C\C(CC)C(C(C)C(O)CC2(O)CC(OC3CC(O)C(O)C(C)O3)C(CC)C(C)O2)OC(=O)/C=C/C(CC)=C/C=C/C(CC)C(C(C)C(O)CC2(O)CC(OC3CC(O)C(O)C(C)O3)C(CC)C(C)O2)OC(=O)\C=C\1` (stereo not shown) [bispolide A1], for which the MIC in data set [1] was no more than 0.049 µg/mL; in data set [2], 0.39 µg/mL (≈ 0.344 µM); in data set [3], 12.5 µg/mL (≈ 11 µM); in data set [4], 1.56 µg/mL (≈ 1.38 µM). Moreover, the Solubility entry in data set [5] (setting [6]) is on record as “sparlingly soluble”; in data set [5] (setting [7]), “Soluble well”; in data set [5] (in water and n-hexane), “insoluble”.
Regarding `CCC1=C\C=C\C(CC)C(C(C)C(O)CC2(OC)CC(OC3OC(C)C(O)C(O)C3O)C(CC)C(C)O2)OC(=O)/C=C/C(CC)=C/C=C/C(CC)C(C(C)C(O)CC2(O)CC(OC3CC(O)C(O)C(C)O3)C(CC)C(C)O2)OC(=O)\C=C\1` (stereo not shown) [bispolide B2b], the MIC in data set [1] amounted to 3.13 µg/mL (≈ 2.69 µM); in data set [2], 0.39 µg/mL (≈ 0.335 µM); in data set [3], 1.56 µg/mL (≈ 1.34 µM); in data set [4], 0.78 µg/mL (≈ 0.67 µM). For the same molecule, the Solubility entry in data set [5] (setting [6]) is recorded as “sparingly soluble”; in data set [5] (setting [7]), “Soluble well”; in data set [5] (in water and n-hexane), “insoluble”.
For `CCC1=C\C=C\C(CC)C(C(C)C(O)CC2(OC)CC(OC3CC(O)C(O)C(C)O3)C(CC)C(C)O2)OC(=O)/C=C/C(CC)=C/C=C/C(CC)C(C(C)C(O)CC2(O)CC(OC3CC(O)C(O)C(C)O3)C(CC)C(C)O2)OC(=O)\C=C\1` (stereo not shown) [bispolide A2], the MIC in data set [1] came to 3.13 µg/mL (≈ 2.73 µM); in data set [2] it was 0.78 µg/mL (≈ 0.68 µM); in data set [3], 1.56 µg/mL (≈ 1.36 µM); in data set [4], 1.56 µg/mL (≈ 1.36 µM). Moreover, the Solubility entry in data set [5] (setting [6]) is listed as “sparlingly soluble”; in data set [5] (setting [7]), “Soluble well”; in data set [5] (in water and n-hexane), “insoluble”.
For `CCC1=C\C=C\C(CC)C(C(C)C(O)CC2(OC)CC(OC3CC(O)C(O)C(C)O3)C(CC)C(C)O2)OC(=O)/C=C/C(CC)=C/C=C/C(CC)C(C(C)C(O)CC2(OC)CC(OC3CC(O)C(O)C(C)O3)C(CC)C(C)O2)OC(=O)\C=C\1` (stereo not shown) [bispolide A3], the MIC in data set [1] is 3.13 µg/mL (≈ 2.69 µM); in data set [2], 0.78 µg/mL (≈ 0.672 µM); in data set [3] it was 1.56 µg/mL (≈ 1.34 µM); in data set [4], 1.56 µg/mL (≈ 1.34 µM). Besides, the Solubility result in data set [5] (setting [6]) is listed as “sparlingly soluble”; in data set [5] (setting [7]), “Soluble well”; in data set [5] (in water and n-hexane), “insoluble”.
Consider `CCC1=C\C=C\C(CC)C(C(C)C(O)CC2(O)CC(OC3OC(C)C(O)C(O)C3O)C(CC)C(C)O2)OC(=O)/C=C/C(CC)=C/C=C/C(CC)C(C(C)C(O)CC2(O)CC(OC3CC(O)C(O)C(C)O3)C(CC)C(C)O2)OC(=O)\C=C\1` (stereo not shown) [bispolide B1], for which the MIC in data set [1] was no more than 0.049 µg/mL; in data set [2], 0.2 µg/mL (≈ 0.174 µM); in data set [3], 0.39 µg/mL (≈ 0.339 µM); in data set [4], 1.56 µg/mL (≈ 1.36 µM). Moreover, the Solubility result is “sparingly soluble” in data set [5] (setting [6]); “Soluble well” in data set [5] (setting [7]); “insoluble” in data set [5] (in water and n-hexane).
`CCC1=C\C=C\C(CC)C(C(C)C(O)CC2(OC)CC(OC3CC(O)C(O)C(C)O3)C(CC)C(C)O2)OC(=O)/C=C/C(CC)=C/C=C/C(CC)C(C(C)C(O)CC2(O)CC(OC3OC(C)C(O)C(O)C3O)C(CC)C(C)O2)OC(=O)\C=C\1` (stereo not shown) [bispolide B2a]: the MIC in data set [1] was 1.56 µg/mL (≈ 1.34 µM); in data set [2] it was 0.39 µg/mL (≈ 0.335 µM); in data set [3], 1.56 µg/mL (≈ 1.34 µM); in data set [4] it was 1.56 µg/mL (≈ 1.34 µM). For the same molecule, the Solubility entry is listed as “sparingly soluble” in data set [5] (setting [6]); “Soluble well” in data set [5] (setting [7]); “insoluble” in data set [5] (in water and n-hexane).
